Results taken from patent publication US12187742B2 (XRAD Therapeutics, Inc., priority 2018, dated 2025).
pIC50: −log10 of the molar value. Structures can show the parent of a compound that is named as a salt.

How the values were obtained:
ATM = ATM (Homo sapiens (Human), UniProt Q13315); test: ATM in Cell Western Assay (pKAP1 in etoposide-treated MCF-7 cells); assay type: cell-based
In short: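 After paraformaldehyde fixation and Triton X-100 permeabilization, immunostained plates were read by infrared scanning (ODYSSEY CLx). Compound was given as 10 doses, 3-fold dilutions from a 1 μM final top concentration.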

DNA-PK = DNA-PK (Homo sapiens (Human), UniProt P78527); test: DNA-PK Enzyme-Linked Immunosorbent Assay (phosphorylation of GST-p53 (1-101) peptide); assay type: biochemical; conditions: ELISA
In short: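 Inhibition measured by 450 nm absorbance after HRP/TMB detection of phospho-Ser15 on immobilized GST-p53 (1-101). The kinase reaction used 0.1 μg/mL DNA-PK and 20 μM ATP, 1 h at 25 °C. Ten 3-fold compound dilutions, top final concentration 100 nM.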

[1] = pKAP1 in etoposide-treated MCF-7 cells
[2] = MCF-7 cells, etoposide 100 μM, 1 hr, pKAP1 readout

ATM, sequence (Q13315 whole entry): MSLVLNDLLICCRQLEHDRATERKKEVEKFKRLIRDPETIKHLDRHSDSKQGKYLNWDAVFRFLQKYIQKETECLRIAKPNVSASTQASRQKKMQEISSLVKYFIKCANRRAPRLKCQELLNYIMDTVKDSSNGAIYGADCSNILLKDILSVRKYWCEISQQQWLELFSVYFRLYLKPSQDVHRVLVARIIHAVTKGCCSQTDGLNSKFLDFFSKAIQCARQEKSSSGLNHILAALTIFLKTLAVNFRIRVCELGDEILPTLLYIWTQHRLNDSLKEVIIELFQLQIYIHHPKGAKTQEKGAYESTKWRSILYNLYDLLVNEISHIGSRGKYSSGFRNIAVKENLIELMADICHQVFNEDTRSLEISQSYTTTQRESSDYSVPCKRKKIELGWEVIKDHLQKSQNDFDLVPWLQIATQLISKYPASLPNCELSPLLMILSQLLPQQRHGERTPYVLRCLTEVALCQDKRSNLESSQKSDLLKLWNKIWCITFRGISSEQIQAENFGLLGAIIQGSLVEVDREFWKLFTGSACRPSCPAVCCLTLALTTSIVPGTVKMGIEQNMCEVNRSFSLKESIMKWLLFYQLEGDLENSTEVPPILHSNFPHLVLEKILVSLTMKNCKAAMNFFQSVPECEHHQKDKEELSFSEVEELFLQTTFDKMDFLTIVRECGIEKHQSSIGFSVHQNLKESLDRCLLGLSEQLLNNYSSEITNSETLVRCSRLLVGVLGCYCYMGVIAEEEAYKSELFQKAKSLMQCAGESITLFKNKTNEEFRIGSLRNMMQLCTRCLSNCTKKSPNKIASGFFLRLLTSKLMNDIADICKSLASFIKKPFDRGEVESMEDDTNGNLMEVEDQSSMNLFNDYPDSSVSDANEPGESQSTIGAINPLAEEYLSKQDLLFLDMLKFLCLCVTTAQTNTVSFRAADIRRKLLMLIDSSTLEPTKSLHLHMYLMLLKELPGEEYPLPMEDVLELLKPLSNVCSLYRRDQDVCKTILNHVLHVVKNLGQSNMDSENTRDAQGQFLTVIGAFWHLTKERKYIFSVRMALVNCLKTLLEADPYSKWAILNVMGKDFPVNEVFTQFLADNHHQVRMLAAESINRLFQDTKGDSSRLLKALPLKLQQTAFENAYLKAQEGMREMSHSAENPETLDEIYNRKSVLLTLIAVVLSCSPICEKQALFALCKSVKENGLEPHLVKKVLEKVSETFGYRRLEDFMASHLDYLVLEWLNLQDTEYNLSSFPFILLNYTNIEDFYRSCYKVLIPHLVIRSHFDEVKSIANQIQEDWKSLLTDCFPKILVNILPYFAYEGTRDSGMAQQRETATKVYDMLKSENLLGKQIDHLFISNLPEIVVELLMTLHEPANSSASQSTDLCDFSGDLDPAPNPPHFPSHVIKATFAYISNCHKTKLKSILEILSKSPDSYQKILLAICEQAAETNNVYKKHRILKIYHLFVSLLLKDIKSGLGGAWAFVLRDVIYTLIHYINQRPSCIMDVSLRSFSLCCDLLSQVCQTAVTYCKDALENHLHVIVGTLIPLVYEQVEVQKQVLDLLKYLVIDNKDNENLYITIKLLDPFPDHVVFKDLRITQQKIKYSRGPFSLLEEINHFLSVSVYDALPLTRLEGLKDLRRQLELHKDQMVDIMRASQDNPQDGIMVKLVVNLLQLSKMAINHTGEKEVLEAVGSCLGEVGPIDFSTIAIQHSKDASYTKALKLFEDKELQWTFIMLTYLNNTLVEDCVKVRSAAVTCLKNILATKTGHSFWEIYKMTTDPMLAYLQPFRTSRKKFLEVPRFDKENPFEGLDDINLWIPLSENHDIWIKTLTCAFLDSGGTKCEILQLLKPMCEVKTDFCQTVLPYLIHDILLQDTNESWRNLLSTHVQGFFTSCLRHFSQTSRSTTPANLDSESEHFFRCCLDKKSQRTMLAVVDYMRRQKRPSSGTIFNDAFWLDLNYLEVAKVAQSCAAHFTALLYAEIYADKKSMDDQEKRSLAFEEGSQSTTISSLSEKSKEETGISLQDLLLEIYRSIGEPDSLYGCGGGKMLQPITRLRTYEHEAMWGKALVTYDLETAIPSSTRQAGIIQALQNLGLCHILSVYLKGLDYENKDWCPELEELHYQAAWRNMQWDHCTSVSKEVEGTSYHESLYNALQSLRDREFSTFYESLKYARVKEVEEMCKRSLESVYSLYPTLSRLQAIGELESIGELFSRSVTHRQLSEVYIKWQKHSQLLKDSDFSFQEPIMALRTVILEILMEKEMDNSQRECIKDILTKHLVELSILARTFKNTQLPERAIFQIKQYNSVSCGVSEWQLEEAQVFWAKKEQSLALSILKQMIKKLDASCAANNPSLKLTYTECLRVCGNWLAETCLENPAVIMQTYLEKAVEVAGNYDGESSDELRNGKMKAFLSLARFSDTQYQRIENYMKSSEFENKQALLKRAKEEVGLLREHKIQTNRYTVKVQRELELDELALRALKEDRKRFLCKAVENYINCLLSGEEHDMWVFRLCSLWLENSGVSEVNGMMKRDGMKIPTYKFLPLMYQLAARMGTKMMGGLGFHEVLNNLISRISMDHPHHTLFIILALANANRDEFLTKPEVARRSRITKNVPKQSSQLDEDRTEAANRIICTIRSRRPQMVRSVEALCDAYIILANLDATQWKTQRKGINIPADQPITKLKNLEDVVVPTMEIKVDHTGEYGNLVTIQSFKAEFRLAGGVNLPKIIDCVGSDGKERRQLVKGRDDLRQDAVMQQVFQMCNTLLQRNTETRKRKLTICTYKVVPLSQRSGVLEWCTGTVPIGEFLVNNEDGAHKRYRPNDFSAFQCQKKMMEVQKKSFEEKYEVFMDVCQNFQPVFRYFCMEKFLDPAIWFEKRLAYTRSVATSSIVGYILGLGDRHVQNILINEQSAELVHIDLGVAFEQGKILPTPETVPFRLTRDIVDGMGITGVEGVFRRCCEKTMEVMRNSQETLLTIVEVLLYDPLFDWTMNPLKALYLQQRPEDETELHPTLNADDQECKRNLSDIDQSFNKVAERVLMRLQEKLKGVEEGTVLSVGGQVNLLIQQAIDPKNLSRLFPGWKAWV

| SMILES | pIC50 (ATM; [1]) | pIC50 (DNA-PK; 20 μM ATP) | pIC50 (ATM; [2]) | pIC50 (DNA-PK; ATP 20 μM) |
| --- | --- | --- | --- | --- |
| CC(C)NCCOc1ncc(-c2cc3c(cc2F)ncc2c3[C@]3(C[C@H](Oc4ccccc4)C3)C(=O)N2C)cc1NS(C)(=O)=O [Example 400, cis-N-(5-(7′-Fluoro-3′-methyl-2′-oxo-3-phenoxy-2′,3′-dihydrospiro[cyclobutane-1,1′-pyrrolo[2,3-c]quinolin]-8′-yl)-2-(2-(isopropylamino)ethoxy)pyridin-3-yl)methanesulfonamide] | 9.00 to 9.30 | 7.00 to 9.00 | – | – |
| CN1C(=O)C2(CCC2)c2c1cnc1ccc(-c3cnc(N4CCC(N5CCCCC5)CC4)c(NS(=O)(=O)c4ccc(F)cc4F)c3)cc21 [Example 206, N-(2-([1,4′-Bipiperidin]-1′-yl)-5-(3′-methyl-2′-oxo-2′,3′-dihydrospiro[cyclobutane-1,1′-pyrrolo[2,3-c]quinolin]-8′-yl)pyridin-3-yl)-2,4-difluorobenzenesulfonamide hydrochloride] | – | – | 7.00 to 9.00 | > 9.30 |
| COc1cc([C@H]2C[C@@]3(C2)C(=O)N(C)c2cnc4cc(F)c(-c5cnc(OCCNC(C)C)c(NS(C)(=O)=O)c5)cc4c23)ccn1 [Example 433, trans-N-(5-(7′-Fluoro-3-(2-methoxypyridin-4-yl)-3′-methyl-2′-oxo-2′,3′-dihydrospiro[cyclobutane-1,1′-pyrrolo[2,3-c]quinolin]-8′-yl)-2-(2-(isopropylamino)ethoxy)pyridin-3-yl)methanesulfonamide] | < 7.00 | 7.00 to 9.00 | – | – |
| CN1C(=O)C2(CCC2)c2c1cnc1ccc(-c3cnc(N4CCC(N5CCOCC5)CC4)c(NS(=O)(=O)N(C)C)c3)cc21 [Example 355, 8′-{5-[(Dimethylsulfamoyl)amino]-6-[4-(morpholin-4-yl)piperidin-1-yl]pyridin-3-yl}-3′-methyl-2′,3′-dihydrospiro[cyclobutane-1,1′-pyrrolo[2,3-c]quinoline]-2′-one] | 7.00 to 9.00 | 7.00 to 9.00 | – | – |
| CC(C)NCCOc1ncc(-c2cc3c(cc2F)ncc2c3[C@]3(C[C@H](c4cccc(=O)[nH]4)C3)C(=O)N2C)cc1NS(C)(=O)=O [Example 440, cis-N-(5-(7′-Fluoro-3′-methyl-2′-oxo-3-(6-oxo-1,6-dihydropyridin-2-yl)-2′,3′-dihydrospiro[cyclobutane-1,1′-pyrrolo[2,3-c]quinolin]-8′-yl)-2-(2-(isopropylamino)ethoxy)pyridin-3-yl)methanesulfonamide] | < 7.00 | 7.00 to 9.00 | – | – |
| CN(C)CCCOc1ncc(-c2ccc3ncc4c(c3c2)C2(CN(c3ccccc3)C2)C(=O)N4C)cc1NS(=O)(=O)c1ccccc1 [Example 114, N-(2-(3-(Dimethylamino)propoxy)-5-(3′-methyl-2′-oxo-1-phenyl-2′,3′-dihydrospiro[azetidine-3,1′-pyrrolo[2,3-c]quinolin]-8′-yl)pyridin-3-yl)benzenesulfonamide] | – | – | 7.00 to 9.00 | 7.00 to 9.00 |
| CN1C(=O)C2(CCC2)c2c1cnc1ccc(-c3cnc(OCCCN4CCCCC4)c(NS(=O)(=O)c4cncs4)c3)cc21 [Example 199, N-(5-(3′-Methyl-2′-oxo-2′,3′-dihydrospiro[cyclobutane-1,1′-pyrrolo[2,3-c]quinolin]-8′-yl)-2-(3-(piperidin-1-yl)propoxy)pyridin-3-yl)thiazole-5-sulfonamide hydrochloride] | – | – | 7.00 to 9.00 | > 9.30 |
| CO[C@H]1C[C@]2(C1)C(=O)N(C)c1cnc3cc(F)c(-c4cnc(N5CCC(N6CCCCC6)CC5)c(NS(C)(=O)=O)c4)cc3c12 [Example 391, cis-N-(2-([1,4′-Bipiperidin]-1′-yl)-5-(7′-fluoro-3-methoxy-3′-methyl-2′-oxo-2′,3′-dihydrospiro[cyclobutane-1,1′-pyrrolo[2,3-c]quinolin]-8′-yl)pyridin-3-yl)methanesulfonamide] | 7.00 to 9.00 | 7.00 to 9.00 | – | – |
| CN(C)CCCOc1ncc(-c2ccc3ncc4c(c3c2)C2(CC(F)(F)C2)C(=O)N4C)cc1NS(C)(=O)=O [Example 554, N-(5-(3,3-Difluoro-3′-methyl-2′-oxo-2′,3′-dihydrospiro[cyclobutane-1,1′-pyrrolo[2,3-c]quinolin]-8′-yl)-2-(3-(dimethylamino)propoxy)pyridin-3-yl)methanesulfonamide] | 7.00 to 9.00 | 7.00 to 9.00 | – | – |
| CN(C)CCCOc1ncc(-c2ccc3ncc4c(c3c2)C2(CCC2)C(=O)N4C)cc1NS(=O)(=O)c1ccns1 [Example 188, N-(2-(3-(Dimethylamino)propoxy)-5-(3′-methyl-2′-oxo-2′,3′-dihydrospiro [cyclobutane-1,1′-pyrrolo [2,3-c]quinolin]-8′-yl)pyridin-3-yl) isothiazole-5-sulfonamide hydrochloride] | – | – | 7.00 to 9.00 | > 9.30 |
| CCc1ncc(S(=O)(=O)Nc2cc(-c3ccc4ncc5c(c4c3)C3(CCC3)C(=O)N5C)cnc2OCCCN(C)C)s1 [Example 245, N-(2-(3-(Dimethylamino)propoxy)-5-(3′-methyl-2′-oxo-2′,3′-dihydrospiro [cyclobutane-1,1′-pyrrolo [2,3-c]quinolin]-8′-yl)pyridin-3-yl)-2-ethylthiazole-5-sulfonamide] | – | – | 7.00 to 9.00 | > 9.30 |
| CN1CCN(c2ncc(-c3ccc4ncc5c(c4c3)C3(CC3)C(=O)N5C)cc2NS(=O)(=O)c2ccccc2)CC1 [Example 49, N-(5-(3′-Methyl-2′-oxo-2′,3′-dihydrospiro[cyclopropane-1,1′-pyrrolo[2,3-c]quinolin]-8′-yl)-2-(4-methylpiperazin-1-yl)pyridin-3-yl)benzenesulfonamide] | – | – | 9.00 to 9.30 | > 9.30 |
| CC(C)NCCOc1ncc(-c2cc3c(cc2F)ncc2c3[C@]3(C[C@@H](c4ccccn4)C3)C(=O)N2C)cc1NS(C)(=O)=O [Example 435, trans-N-(5-(7′-Fluoro-3′-methyl-2′-oxo-3-(pyridin-2-yl)-2′,3′-dihydrospiro[cyclobutane-1,1′-pyrrolo[2,3-c]quinolin]-8′-yl)-2-(2-(isopropylamino)ethoxy)pyridin-3-yl)methanesulfonamide] | < 7.00 | 7.00 to 9.00 | – | – |
| CN(C)CCCOc1ncc(-c2ccc3ncc4c(c3c2)C2(CCC2)C(=O)N4)cc1NS(C)(=O)=O [Example 237, N-(2-(3-(Dimethylamino)propoxy)-5-(2′-oxo-2′,3′-dihydrospiro [cyclobutane-1,1′-pyrrolo[2,3-c]quinolin]-8′-yl)pyridin-3-yl)methanesulfonamide] | – | – | 7.00 to 9.00 | 7.00 to 9.00 |
| CN(C)CCCOc1ncc(-c2ccc3ncc4c(c3c2)C2(CCCCC2)C(=O)N4C)cc1NS(=O)(=O)c1ccccc1 [Example 3, N-(2-(3-(Dimethylamino)propoxy)-5-(3′-methyl-2′-oxo-2′,3′-dihydrospiro[cyclohexane-1,1′-pyrrolo[2,3-c]quinolin]-8′-yl)pyridin-3-yl) benzenesulfonamide] | – | – | 7.00 to 9.00 | 7.00 to 9.00 |
| CN(C)CCCOc1ncc(-c2ccc3ncc4c(c3c2)[C@]2(C[C@@H](O)C2)C(=O)N4C)cc1NS(C)(=O)=O [Example 383, trans-N-(2-(3-(Dimethylamino)propoxy)-5-(3-hydroxy-3′-methyl-2′-oxo-2′,3′-dihydrospiro[cyclobutane-1,1′-pyrrolo[2,3-c]quinolin]-8′-yl)pyridin-3-yl)methanesulfonamide] | 7.00 to 9.00 | 7.00 to 9.00 | – | – |
| CC1CCCN1S(=O)(=O)Nc1cc(-c2ccc3ncc4c(c3c2)C2(CCC2)C(=O)N4C)cnc1OCCCN(C)C (stereo not drawn) [Example 172, N-(2-(3-(Dimethylamino)propoxy)-5-(3′-methyl-2′-oxo-2′,3′-dihydrospiro [cyclobulane-1,1′-pyrrolo[2,3-c]quinolin]-8′-yl)pyridin-3-yl)-2-methylpyrrolidine-1-sulfonamide] | – | – | 7.00 to 9.00 | 7.00 to 9.00 |
| CO[C@H]1C[C@@]2(C1)C(=O)N(C)c1cnc3cc(F)c(-c4cnc(OCCNC(C)C)c(NS(=O)(=O)C5CC5)c4)cc3c12 [Example 388, trans-N-{5-(7′-Fluoro-3-methoxy-3 methyl-2′-oxo-2′,3′-dihydrospiro [cyclobutane-1,1′-pyrrolo[2,3-c]quinolin]-8′-yl)-2-(2-(isopropylamino)ethoxy)pyridin-3-yl)cyclopropanesulfonamide] | 7.00 to 9.00 | 7.00 to 9.00 | – | – |
| CN1CCC(c2ncc(-c3ccc4ncc5c(c4c3)C3(CCC3)C(=O)N5C)cc2NS(C)(=O)=O)CC1 [Example 285, N-(5-(3′-Methyl-2′-oxo-2′,3′-dihydrospiro[cyclobutane-1,1′-pyrrolo[2,3-c]quinolin]-8′-yl)-2-(1-methylpiperidin-4-yl)pyridin-3-yl)methanesulfonamide] | – | – | 7.00 to 9.00 | 7.00 to 9.00 |
| Cc1ncc(S(=O)(=O)Nc2cc(-c3ccc4ncc5c(c4c3)C3(CCC3)C(=O)N5C)cnc2OCCCN(C)C)s1 [Example 289, N-(2-(3-(Dimethylamino)propoxy)-5-(3′-methyl-2′-oxo-2′,3′-dihydrospiro [cyclobutane-1,1′-pyrrolo [2,3-c]quinolin]-8′-yl)pyridin-3-yl)-2-methylthiazole-5-sulfonamide] | – | – | 7.00 to 9.00 | 9.00 to 9.30 |
| CN(C)CCCOc1ncc(-c2ccc3ncc4c(c3c2)C2(CCC2)C(=O)N4C)cc1NS(=O)(=O)c1cncc(Cl)c1 [Example 130, 5-Chloro-N-(2-(3-(dimethylamino)propoxy)-5-(3′-methyl-2′-oxo-2′,3′-dihydrospiro[cyclobulane-1,1′-pyrrolo[2,3-c]quinolin]-8′-yl)pyridin-3-ylpyridine-3-sulfonamide hydrochloride] | – | – | 7.00 to 9.00 | 7.00 to 9.00 |
